This note sets out measurements from patent US6204293A, “Inhibitors of protein isoprenyl transferases” (University of Pittsburgh, priority 1998, dated 2001).

Structures can show the parent of a compound that is named as a salt.

Broadly, the % inhibition is the relative decrease from the control value, in per cent. A high value points to strong suppression. For orientation: inhibition means how much of the control response was suppressed.

T1 sequence (Q02293 whole entry, one chain of several): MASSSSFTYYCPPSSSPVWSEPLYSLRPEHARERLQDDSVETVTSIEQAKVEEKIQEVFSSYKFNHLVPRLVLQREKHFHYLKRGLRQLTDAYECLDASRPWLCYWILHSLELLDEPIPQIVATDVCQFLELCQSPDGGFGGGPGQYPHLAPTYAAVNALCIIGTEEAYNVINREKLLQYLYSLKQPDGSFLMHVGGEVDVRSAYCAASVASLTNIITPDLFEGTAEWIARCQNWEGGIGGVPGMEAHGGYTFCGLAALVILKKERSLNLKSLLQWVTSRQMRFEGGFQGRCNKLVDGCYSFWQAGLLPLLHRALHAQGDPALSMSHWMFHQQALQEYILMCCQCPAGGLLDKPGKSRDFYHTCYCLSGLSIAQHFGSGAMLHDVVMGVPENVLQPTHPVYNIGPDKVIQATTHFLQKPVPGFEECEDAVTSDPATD

The first test concerns the target T1, Rat brain protein farnesyltransferase (Rattus norvegicus, UniProt Q02293+Q04631).
T1 construct: Rat brain protein farnesyltransferase activity is measured; from tissue; host or cells: rat brain
The test is described as follows: % inhibition of farnesylation, scintillation proximity assay with biotin-K Ras B fragment. Type of test: biochemical. The following applies: Table 2; 1 × 10^-6 M. The essentials:
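Scintillation proximity read-out of farnesylation, using a biotinylated K Ras B fragment (0.1 mM final) in place of biotin-lamin. Enzyme purified from rat brain; results given as % inhibition.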
For orientation: SPA uses beads or plates that emit light when radiolabelled molecules are held near them.
For the compound `CCOC(=O)N1CCC(NCc2ccc(C(=O)N[C@@H](CCSC)C(=O)[O-])c(-c3ccccc3C)c2)CC1.[Li+]` [Example 806], the “% inhibition at 1 × 10^-6 M” value was determined as 72%.

With `CSCC[C@H](NC(=O)c1ccc(/C=C/c2ccc(Oc3ccccc3)nn2)cc1-c1ccccc1C)C(=O)O` [Example 810], the “% inhibition at 1 × 10^-6 M” value stood at 89%.

Regarding `CSCC[C@H](NC(=O)c1ccc(/C=C/c2cnc(Oc3ccccc3)cn2)cc1-c1ccccc1C)C(=O)O` [Example 812], the “% inhibition at 1 × 10^-6 M” value is given as 94%.

Consider `CSCC[C@H](NC(=O)c1ccc(CCc2cnc(Oc3ccccc3)cn2)cc1-c1ccccc1C)C(=O)O` [Example 813], for which the “% inhibition at 1 × 10^-6 M” value turned out to be 95%.

Regarding `CSCC[C@H](NC(=O)c1ccc(CN2CCC[C@H]2COCc2ccccc2)cc1-c1ccccc1C)C(=O)O` [Example 824], the “% inhibition at 1 × 10^-6 M” value amounted to 90%.

With `CSCC[C@H](NC(=O)c1ccc(CN(Cc2ccco2)C(C)C)cc1-c1ccccc1C)C(=O)O` [Example 831], the “% inhibition at 1 × 10^-6 M” value came to 92%.

Regarding `CSCC[C@H](NC(=O)c1ccc(CN(Cc2ccoc2)C(C)C)cc1-c1ccccc1C)C(=O)O` [Example 832], the “% inhibition at 1 × 10^-6 M” value is on record as 80%.

In the case of `CSCC[C@H](NC(=O)c1ccc(CN(Cc2ccccc2)Cc2ccccc2)cc1-c1ccccc1)C(=O)O` [Example 834], the “% inhibition at 1 × 10^-6 M” value is reported as 55%.

For the compound `CSCC[C@H](NC(=O)c1ccc(CN(CCc2ccccc2)C(C)C)cc1-c1ccccc1C)C(=O)O` [Example 835], the “% inhibition at 1 × 10^-6 M” value turned out to be 96%.

With `CSCC[C@H](NC(=O)c1ccc(CN(Cc2ccccc2)c2ccccc2C(C)=O)cc1-c1ccccc1C)C(=O)O` [Example 844], the “% inhibition at 1 × 10^-6 M” value worked out at 92%.

Regarding `CSCC[C@H](NC(=O)c1ccc(CN(Cc2ccccc2)c2ccccc2Cl)cc1-c1ccccc1C)C(=O)O` [Example 846], the “% inhibition at 1 × 10^-6 M” value is on record as 85%.

For the compound `CSCC[C@H](NC(=O)c1ccc(CN(Cc2ccccc2)c2ccccc2SC)cc1-c1ccccc1C)C(=O)[O-].[Li+]` [Example 850], the “% inhibition at 1 × 10^-6 M” value turned out to be 90%.

Staying with this test, now noted: Table 3; 1 × 10^-7 M.
Turning to `CSCC[C@H](NC(=O)c1ccc(CCc2ccc(Oc3ccccc3)nn2)cc1-c1ccccc1C)C(=O)O` [Example 811], the “% inhibition at 1 × 10^-7 M” value is 85%.

On to `COc1ccccc1N(Cc1ccccc1)Cc1ccc(C(=O)N[C@@H](CCSC)C(=O)O)c(-c2ccccc2C)c1` [Example 839], for which the “% inhibition at 1 × 10^-7 M” value is recorded as 63%.

With `CSCC[C@H](NC(=O)c1ccc(CN(Cc2ccccc2)c2ccccc2[N+](=O)[O-])cc1-c1ccccc1C)C(=O)[O-].[Li+]` [Example 849], the “% inhibition at 1 × 10^-7 M” value was 66%.

The test is the same for the next values; noted with them: Table 4; 1 × 10^-8 M.
As to `CSCC[C@H](NC(=O)c1ccc(CN(Cc2ccccc2)c2cncnc2)cc1-c1ccccc1C)C(=O)O` [Example 836], the “% inhibition at 1 × 10^-8 M” value is recorded as 95%.

`CSCC[C@H](NC(=O)c1ccc(CN(Cc2ccc3c(c2)OCO3)c2cncnc2)cc1-c1ccccc1C)C(=O)O` [Example 837]: the “% inhibition at 1 × 10^-8 M” value is 91%.

On to `CSCC[C@H](NC(=O)c1ccc(CN(Cc2ccc3c(c2)OCO3)c2cnccn2)cc1-c1ccccc1C)C(=O)O` [Example 838], for which the “% inhibition at 1 × 10^-8 M” value is 92%.

On to `COc1ccc(N(Cc2ccccc2)Cc2ccc(C(=O)N[C@@H](CCSC)C(=O)O)c(-c3ccccc3C)c2)cc1` [Example 840], for which the “% inhibition at 1 × 10^-8 M” value is 73%.

`CSCC[C@H](NC(=O)c1ccc(CN(Cc2ccccc2)c2cccc([N+](=O)[O-])c2)cc1-c1ccccc1C)C(=O)[O-].[Li+]` [Example 842]: the “% inhibition at 1 × 10^-8 M” value is on record as 88%.

Take `CSCC[C@H](NC(=O)c1ccc(CN(Cc2ccccc2)c2ccc([N+](=O)[O-])cc2)cc1-c1ccccc1C)C(=O)O` [Example 843]: the “% inhibition at 1 × 10^-8 M” value amounted to 96%.

For the compound `CSCC[C@H](NC(=O)c1ccc(CN(Cc2ccccc2)c2cccc(C(C)=O)c2)cc1-c1ccccc1C)C(=O)O` [Example 845], the “% inhibition at 1 × 10^-8 M” value stood at 85%.

Regarding `CSCC[C@H](NC(=O)c1ccc(CN(Cc2ccccc2)c2cccc(Cl)c2)cc1-c1ccccc1C)C(=O)O` [Example 847], the “% inhibition at 1 × 10^-8 M” value is recorded as 85%.

Take `CSCC[C@H](NC(=O)c1ccc(CN(Cc2ccccc2)c2ccc(Cl)cc2)cc1-c1ccccc1C)C(=O)O` [Example 848]: the “% inhibition at 1 × 10^-8 M” value came out at 87%.

Turning to `CSCC[C@H](NC(=O)c1ccc(CN(Cc2ccccc2)c2cccc(SC)c2)cc1-c1ccccc1C)C(=O)[O-].[Li+]` [Example 851], the “% inhibition at 1 × 10^-8 M” value came out at 82%.

The same test, now with this note: read-out: % inhibition at 1 × 10^-6 M.
Consider `CSCC[C@H](NC(=O)c1ccc(COC2CCN(C(=O)OC(C)(C)C)CC2)cc1-c1ccccc1C)C(=O)O` [Example 808, N-[4-(1-t-butoxycarbonylpiperidin-4-yloxymethyl)-2-(2-methylphenyl)benzoyl]methionine lithium salt], for which the inhibition at 1 µM stood at 88%.

For `CSCC[C@H](NC(=O)c1ccc(COC2(Cc3ccccc3)CCN(C(=O)OC(C)(C)C)CC2)cc1-c1ccccc1C)C(=O)O` [Example 809, N-[4-(1-t-butoxycarbonyl-4-benzylpiperidin-4-yloxymethyl)-2-(2-methylphenyl)benzoyl]methionine lithium salt], the inhibition at 1 µM is 78%.

Turning to `CSCC[C@H](NC(=O)c1ccc(COC2(c3ccccc3)CCN(C(=O)OC(C)(C)C)CC2)cc1-c1ccccc1C)C(=O)O` [Example 816, N-[4-(1-t-butoxycarbonyl-4-phenylpiperidin-4-yloxymethyl)-2-(2-methylphenyl)benzoyl]methionine lithium salt], the inhibition at 1 µM is 87%.

Staying with this test, now noted: read-out: % inhibition at 1 × 10^-6 M; Table 2; 1 × 10^-6 M.
On to `CSCC[C@H](NC(=O)c1ccc(COC2CCN(Cc3ccccc3)CC2)cc1-c1ccccc1C)C(=O)O` [Example 807, N-[4-(1-benzylpiperidin-4-yloxymethyl)-2-(2-methylphenyl)benzoyl]methioninelithium salt], for which the inhibition at 1 µM was 90%.

The test is the same for the next values; noted with them: read-out: % inhibition at 1 × 10^-7 M.
Consider `CSCC[C@H](NC(=O)c1ccc(COc2ccc(Oc3ccccc3)cc2)cc1-c1ccccc1C)C(=O)O` [Example 795, N-[4-(4-phenoxyphenoxymethyl)-2-(2-methylphenyl)benzoyl]methionine lithium salt], for which the inhibition at 0.1 µM stood at 87%.

With `CSCC[C@H](NC(=O)c1ccc(COC2CCC(NC(=O)OC(C)(C)C)CC2)cc1-c1ccccc1C)C(=O)O` (some centres unmarked) [Example 817, N-[4-(4-t-butoxycarbonylaminocyclohexyloxymethyl)-2-(2-methylphenyl)benzoyl]methionine lithium salt], the inhibition at 0.1 µM worked out at 60%.

As to `CCCCC(OCc1ccc(C(=O)N[C@@H](CCSC)C(=O)O)c(-c2ccccc2C)c1)c1ccco1` (some centres unmarked) [Example 825, N-[4-(1-furan-2-ylpentyloxymethyl)-2-(2-methylphenyl)benzoyl]methionine lithium salt], the inhibition at 0.1 µM turned out to be 79%.

The test is the same for the next values; noted with them: read-out: % inhibition at 1 × 10^-7 M; Table 3; 1 × 10^-7 M.
In the case of `CSCC[C@H](NC(=O)c1ccc(COCc2ccc(-c3ccc(Cl)cc3)o2)cc1-c1ccccc1C)C(=O)NS(C)(=O)=O` [Example 818, N-[4-(5-(4-chlorophenyl)furan-2-ylmethoxymethyl)-2-(2-methylphenyl)benzoyl]methionine methanesulfonimide], the inhibition at 0.1 µM is 78%.

For the compound `CSCC[C@H](NC(=O)c1ccc(COCC2CCC(c3ccc(Cl)cc3)O2)cc1-c1ccccc1C)C(=O)O` (stereo partly drawn) [Example 822, N-[4-(5-syn(4chlorophenyl)tetrahydrofuran-2-ylmethoxymethyl)-2-(2-methylphenyl)benzoyl]methionine lithium salt], the inhibition at 0.1 µM is 93%.

Staying with this test, now noted: read-out: % inhibition at 1 × 10^-8 M.
`CSCC[C@H](NC(=O)c1ccc(COCc2ccc(-c3ccc(C(C)C)cc3)o2)cc1-c1ccccc1C)C(=O)O` [Example 820, N-[4-(5-(4-isopropylphenyl)furan-2-ylmethoxymethyl)-2-(2-methylphenyl)benzoyl]methionine lithium salt]: the inhibition at 0.01 µM was 66%.

For `CCCCC(OCc1ccc(C(=O)N[C@@H](CCSC)C(=O)O)c(-c2ccccc2C)c1)c1ccc(-c2ccc(Cl)cc2)o1` (some centres unmarked) [Example 826, N-[4-(1-(5-(4-chlorophenyl)furan-2-yl)pentyloxymethyl)-2-(2-methylphenyl)benzoyl]methionine lithium salt], the inhibition at 0.01 µM came out at 92%.

On to `CSCC[C@H](NC(=O)c1ccc(COCc2occc2-c2ccc(Cl)cc2)cc1-c1ccccc1C)C(=O)O` [Example 827, N-[4-(3-(4-chlorophenyl)furan-2-ylmethoxymethyl)-2-(2-methylphenyl)benzoyl]methionine lithium salt], for which the inhibition at 0.01 µM worked out at 77%.

For the compound `CSCC[C@H](NC(=O)c1ccc(COC(Cc2ccccc2)c2cncs2)cc1-c1ccccc1C)C(=O)O` (some centres unmarked) [Example 828, N-[4-(1-thiazol-5-yl-2-phenylethoxymethyl)-2-(2-methylphenyl)benzoyl]methionine lithium salt], the inhibition at 0.01 µM is 87%.

For `CSCC[C@H](NC(=O)c1ccc(COCc2oc(-c3ccc(Cl)cc3)c(Cl)c2Cl)cc1-c1ccccc1C)C(=O)O` [Example 829, N-[4-(3,4-dichloro-5-(4-chlorophenyl)furan-2-ylmethoxymethyl)-2-(2-methylphenyl)benzoyl]methionine lithium salt], the inhibition at 0.01 µM was 92%.

The test is the same for the next values; noted with them: read-out: % inhibition at 1 × 10^-8 M; Table 4; 1 × 10^-8 M.
`CSCC[C@H](NC(=O)c1ccc(COCc2ccc(-c3ccc(Cl)cc3)o2)cc1-c1ccccc1C)C(=O)NS(=O)(=O)c1ccccc1` [Example 819, N-[4-(5-(4-chlorophenyl)furan-2-ylmethoxymethyl)-2-(2-methylphenyl)benzoyl]methionine benzenesulfonimide]: the inhibition at 0.01 µM came to 76%.

In the case of `CSCC[C@H](NC(=O)c1ccc(COCc2ccc(-c3ccc(N(C)C)cc3)o2)cc1-c1ccccc1C)C(=O)O` [Example 821, N-[4-(5-(4-N,N-dimethylaminophenyl)furan-2-ylmethoxymethyl)-2-(2-methylphenyl)benzoyl]methionine lithium salt], the inhibition at 0.01 µM came to 75%.
